Data on 28 compounds can be found in patent publication US10183918B2, “Oxa-azaspiro compounds having activity against pain” (LABORATORIOS DEL DR. ESTEVE S.A., priority 2015, dated 2019).

The target of the assay is T1, human σ1 receptor (Homo sapiens, UniProt Q99720).
T1 construct: expressed in transfected cells; host or cells: HEK-293 (membranes)
Description: Human σ1 receptor radioligand assay. The class given is binding. The settings on record: transfected HEK-293 membranes, 5 nM [3H](+)-pentazocine as radioligand. The procedure:
Human σ1 Receptor Radioligand Assay
To investigate binding properties of test compounds to human σ1 receptor, transfected HEK-293 membranes and [^3H](+)-pentazocine (Perkin Elmer, NET-1056), as the radioligand, were used. The assay was carried out with 7 μg of membrane suspension, 5 nM of [^3H](+)-pentazocine in either absence or presence of either buffer or 10 μM Haloperidol for total and non-specific binding, respectively. Binding buffer contained Tris-HCl 50 mM at pH 8. Plates were incubated at 37° C. for 120 minutes. After the incubation period, the reaction mix was then transferred to Multiscreen HTS, FC plates (Millipore), filtered and plates were washed 3 times with ice-cold 10 mM Tris-HCL (pH7.4). Filters were dried and counted at approximately 40% efficiency in a MicroBeta scintillation counter (Perkin-Elmer) using EcoScint liquid scintillation cocktail

T1 sequence (Q99720 whole entry): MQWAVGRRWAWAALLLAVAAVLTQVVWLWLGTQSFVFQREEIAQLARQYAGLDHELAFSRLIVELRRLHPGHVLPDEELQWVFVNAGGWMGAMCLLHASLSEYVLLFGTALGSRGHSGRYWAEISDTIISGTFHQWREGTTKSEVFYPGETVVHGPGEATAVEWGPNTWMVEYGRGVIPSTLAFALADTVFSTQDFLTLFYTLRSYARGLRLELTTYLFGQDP

One may read the Ki as the equilibrium dissociation constant of an inhibitor or competing ligand from its target. A higher Ki goes with lower affinity. For `CN(Cc1ccccc1)[C@H]1CC[C@]2(CC1)CN(C(=O)c1ccccc1)CC1(CC1)O2` [Example 46, ((5r,8r)-8-[Benzyl(methyl)amino]-4-oxa-12-azadispiro[2.1.5.3]tridecan-12-yl)(phenyl)methanone], the Ki is less than 500 nM.

The compound `CCN1C[C@]2(CC[C@H](N(C)CCc3ccccc3)CC2)OC(C)(C)C1=O` [Example 55, (6s,9s)-4-ethyl-2,2-dimethyl-9-(methyl(phenethyl)amino)-1-oxa-4-azaspiro[5.5]undecan-3-one] yielded a Ki of less than 100 nM.

`CCN1C[C@]2(CC[C@@H](NCc3ccccc3)CC2)OC(C)(C)C1=O` [Example 40, (6r,9r)-9-(benzylamino)-4-ethyl-2,2-dimethyl-1-oxa-4-azaspiro[5.5]undecan-3-one] had a Ki not below 500 nM.

Compound `CN(CCc1ccccc1)[C@H]1CC[C@]2(CC1)CN(c1ccccc1)C(=O)C1(CC1)O2` [Example 15, (5r,8r)-8-[methyl(2-phenylethyl)amino]-12-phenyl-4-oxa-12-azadispiro[2.1.5.3]tridecan-13-one] returned a Ki of less than 500 nM.

For `CCN1CC2(CC2)O[C@]2(CC[C@@H](N(C)Cc3ccccc3)CC2)C1` [Example 17, (5s,8s)-N-benzyl-12-ethyl-N-methyl-4-oxa-12-azadispiro[2.1.5.3]tridecan-8-amine], the Ki is less than 500 nM.

With `CC(C)CCN(C)[C@H]1CC[C@@]2(CC1)CN(C(=O)c1ccccc1)CC1(CC1)O2` [Example 59, ((5s,8s)-8-[isopentyl(methyl)amino]-4-oxa-12-azadispiro[2.1.5.3]tridecan-12-yl)(phenyl)methanone], the Ki was less than 500 nM.

As to `CCN1C[C@]2(CC[C@H](NC)CC2)OCC1=O` [Example 47, (6s,9s)-4-ethyl-9-(methylamino)-1-oxa-4-azaspiro[5.5]undecan-3-one acetate], the Ki was not below 500 nM.

In turn, `CCN1C[C@]2(CC[C@@H](N(C)Cc3ccccc3)CC2)OC(C)(C)C1=O` [Example 44, (6r,9r)-9-(benzyl(methyl)amino)-4-ethyl-2,2-dimethyl-1-oxa-4-azaspiro[5.5]undecan-3-one] yielded a Ki of less than 500 nM.

Turning to `CCN1C[C@]2(CC[C@@H](N(C)CCc3ccccc3)CC2)OC2(CC2)C1=O` [Example 4, (5r,8r)-12-ethyl-8-[methyl(2-phenylethyl)amino]-4-oxa-12-azadispiro[2.1.5.3]tridecan-13-one], the Ki was less than 100 nM.

Turning to `CCN1C[C@]2(CC[C@H](NCc3ccccc3)CC2)OC2(CC2)C1=O` [Example 1, (5s,8s)-8-(benzylamino)-12-ethyl-4-oxa-12-azadispiro[2.1.5.3]tridecan-13-one], the Ki is not below 500 nM.

With `CN[C@H]1CC[C@@]2(CC1)CN(c1ccccc1)C(=O)C1(CC1)O2` [Example 23, (5s,8s)-8-(methylamino)-12-phenyl-4-oxa-12-azadispiro[2.1.5.3]tridecan-13-one acetate], the Ki is not below 500 nM.

Compound `CCN1C[C@]2(CC[C@H](N(C)CCC(C)C)CC2)OC(C)(C)C1=O` [Example 53, (6s,9s)-4-ethyl-9-(isopentyl(methyl)amino)-2,2-dimethyl-1-oxa-4-azaspiro[5.5]undecan-3-one] registered an inhibitory constant (Ki) of less than 500 nM.

`CCN1C[C@]2(CC[C@@H](NC)CC2)OC(C)(C)C1=O` [Example 49, (6r,9r)-4-ethyl-2,2-dimethyl-9-(methylamino)-1-oxa-4-azaspiro[5.5]undecan-3-one acetate] yielded an inhibition constant Ki not below 500 nM.

Regarding `CCN1C[C@]2(CC[C@@H](NC)CC2)OC2(CC2)C1=O` [Example 21, (5r,8r)-12-ethyl-8-(methylamino)-4-oxa-12-azadispiro[2.1.5.3]tridecan-13-one acetate], the Ki is not below 500 nM.

In turn, `CCN1C[C@]2(CC[C@H](NCc3ccccc3)CC2)OC(C)(C)C1=O` [Example 39, (6s,9s)-9-(benzylamino)-4-ethyl-2,2-dimethyl-1-oxa-4-azaspiro[5.5]undecan-3-one] returned a Ki not below 500 nM.

The compound `CC(C)CCN(C)[C@H]1CC[C@]2(CC1)CN(c1ccccc1)C(=O)C1(CC1)O2` [Example 30, (5r,8r)-8-[methyl(3-methylbutyl)amino]-12-phenyl-4-oxa-12-azadispiro[2.1.5.3]tridecan-13-one] registered a Ki of less than 100 nM.

For the compound `O=C1N(c2ccccc2)C[C@]2(CC[C@@H](NCc3ccccc3)CC2)OC12CC2` [Example 12, (5r,8r)-8-(benzylamino)-12-phenyl-4-oxa-12-azadispiro[2.1.5.3]tridecan-13-one], the Ki is not below 500 nM.

The compound `CN(Cc1ccccc1)[C@H]1CC[C@]2(CC1)CN(c1ccccc1)CC1(CC1)O2` [Example 20, (5r,8r)-N-benzyl-N-methyl-12-phenyl-4-oxa-12-azadispiro[2.1.53]tridecan-8-amine] gave a Ki of less than 100 nM.

Turning to `CCN1C[C@]2(CC[C@H](N(C)CCc3ccccc3)CC2)OCC1=O` [Example 51, (6s,9s)-4-ethyl-9-(methyl(phenethyl)amino)-1-oxa-4-azaspiro[5.5]undecan-3-one], the Ki is less than 500 nM.

In turn, `CN[C@H]1CC[C@]2(CC1)CN(c1ccccc1)C(=O)C1(CC1)O2` [Example 24, (5r,8r)-8-(methylamino)-12-phenyl-4-oxa-12-azadispiro[2.1.5.3]tridecan-13-one acetate] had a Ki not below 500 nM.

`CCN1C[C@]2(CC[C@H](NC)CC2)OC2(CC2)C1=O` [Example 22, (5s,8s)-12-ethyl-8-(methylamino)-4-oxa-12-azadispiro[2.1.5.3]tridecan-13-one acetate] registered a Ki not below 500 nM.

On to `CCN1CC2(CC2)O[C@]2(CC[C@H](N(C)CCC(C)C)CC2)C1` [Example 35, (5r,8r)-12-ethyl-N-methyl-N-(3-methylbutyl)-4-oxa-12-azadispiro[2.1.5.3]tridecan-8-amine], for which the Ki was less than 500 nM.

The compound `CCN1C[C@]2(CC[C@@H](N(C)CCC(C)C)CC2)OC(C)(C)C1=O` [Example 57, (6r,9r)-4-ethyl-9-(isopentyl(methyl)amino)-2,2-dimethyl-1-oxa-4-azaspiro[5.5]undecan-3-one] yielded an inhibitory constant (Ki) of less than 100 nM.

`CN(CCc1ccccc1)[C@H]1CC[C@@]2(CC1)CN(c1ccccc1)C(=O)C1(CC1)O2` [Example 9, (5s,8s)-8-(methyl(2-phenylethyl)amino]-12-phenyl-4-oxa-12-azadispiro[2.1.5.3]tridecan-13-one]: the inhibition constant (Ki) is less than 500 nM.

Compound `CCN1CC(C)(C)O[C@]2(CC[C@@H](N(C)Cc3ccccc3)CC2)C1` [Example 62, (6s,9s)-N-benzyl-4-ethyl-N,2,2-trimethyl-1-oxa-4-azaspiro[5.5]undecan-9-amine] yielded a Ki of less than 100 nM.

`CCN1C[C@]2(CC[C@@H](N(C)Cc3ccccc3)CC2)OC2(CC2)C1=O` [Example 16, (5r,8r)-8-[benzyl(methyl)amino]-12-ethyl-4-oxa-12-azadispiro[2.1.5.3]tridecan-13-one] had a Ki of less than 100 nM.

On to `CCN1C[C@]2(CC[C@H](N(C)Cc3ccccc3)CC2)OCC1=O` [Example 41, (6s,9s)-9-(benzyl(methyl)amino)-4-ethyl-1-oxa-4-azaspiro[5.5]undecan-3-one], for which the Ki is less than 500 nM.

In turn, `CN(CCc1ccccc1)[C@H]1CC[C@@]2(CC1)CN(C(=O)c1ccccc1)CC1(CC1)O2` [Example 58, ((5s,8s)-8-[methyl(phenethyl)amino]-4-oxa-12-azadispiro[2.1.5.3]tridecan-12-yl)(phenyl)methanone] displayed a Ki of less than 500 nM.
